Test results: patent publication US11274115B2, “Imidazoquinoline derivatives and their use in therapy” (GLAXOSMITHKLINE BIOLOGICALS SA, priority 2016, dated 2022)
Where two headings read alike, the source gives them in different places.

What was measured:
Format in all cases: cell-based
human TLR7 = biological target: T1, human TLR7 (Homo sapiens, UniProt Q9NYK1); assay: hTLR7 agonist reporter assay in HEK293 cells (NFκB-SEAP); settings: for EC50: read-out: hTLR7 ED50; for hTLR7 agonist activity, in words: Table 3, FIG. 5; for hTLR7/8 ratio: hTLR7 ED50 over hTLR8 ED50
T1 construct: host or cells: HEK293
T1 sequence (Q9NYK1 27-1049): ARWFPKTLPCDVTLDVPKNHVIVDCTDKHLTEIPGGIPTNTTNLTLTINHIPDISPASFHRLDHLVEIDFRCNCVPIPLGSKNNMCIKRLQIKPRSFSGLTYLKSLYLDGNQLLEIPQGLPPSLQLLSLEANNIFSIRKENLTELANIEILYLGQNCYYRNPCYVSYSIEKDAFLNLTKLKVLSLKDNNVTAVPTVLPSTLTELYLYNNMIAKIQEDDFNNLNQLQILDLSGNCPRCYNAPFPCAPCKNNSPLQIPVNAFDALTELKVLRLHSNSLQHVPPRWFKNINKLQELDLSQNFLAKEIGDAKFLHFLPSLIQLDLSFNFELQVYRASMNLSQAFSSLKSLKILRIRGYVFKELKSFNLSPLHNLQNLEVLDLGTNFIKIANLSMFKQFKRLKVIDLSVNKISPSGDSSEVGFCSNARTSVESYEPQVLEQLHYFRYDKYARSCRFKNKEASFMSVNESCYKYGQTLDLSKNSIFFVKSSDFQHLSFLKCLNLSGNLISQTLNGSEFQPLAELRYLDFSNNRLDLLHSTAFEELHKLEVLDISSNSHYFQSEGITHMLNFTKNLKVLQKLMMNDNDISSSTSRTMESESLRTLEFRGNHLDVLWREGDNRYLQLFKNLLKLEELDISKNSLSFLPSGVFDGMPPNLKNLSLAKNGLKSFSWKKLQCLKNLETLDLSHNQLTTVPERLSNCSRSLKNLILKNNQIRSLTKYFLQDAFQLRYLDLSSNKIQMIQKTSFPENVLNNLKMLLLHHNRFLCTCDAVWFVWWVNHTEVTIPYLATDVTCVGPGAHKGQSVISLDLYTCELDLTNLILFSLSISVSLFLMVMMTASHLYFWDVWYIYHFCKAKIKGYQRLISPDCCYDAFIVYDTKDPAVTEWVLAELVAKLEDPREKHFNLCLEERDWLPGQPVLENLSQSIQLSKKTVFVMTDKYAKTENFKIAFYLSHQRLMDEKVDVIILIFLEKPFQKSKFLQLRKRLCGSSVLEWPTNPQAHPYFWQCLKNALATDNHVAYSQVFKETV
Experimental: (§1) Assay for hTLR7 and hTLR8 Agonist Activity in HEK-293 Cells
(§2) Determination of TLR agonist activity was performed using the HEK293 […]. This assay measures TLR7 and TLR8 selectivity and potency of the compounds tested. HEK293 cells expressing human TLR7 or TLR8 and NFκB responsive Secreted Embryonic Alkaline Phosphatase (SEAP) reporter gene were obtained from InvivoGen (San Diego, Calif.). These cells were maintained in culture media of Dulbecco's Modified Eagle Medium (DMEM) (Invitrogen, Grand Island, N.Y.), 10% Fetal Bovine Serum (FBS) (Sigma, St. Louis, Mo.) and selection antibiotics (Invitrogen, and Invivogen). HEK293 stably transfected with human TLR7 (hTLR7) or human TLR8 (hTLR8) were stimulated for 24 h with aqueous formulations of test compounds and culture supernatants were analyzed for NFκB activation using the colorimetric SEAP detection kit QuantBlue (InvivoGen).

human TLR8 = biological target: T2, human TLR8 (Homo sapiens, UniProt Q9NR97); assay: hTLR8 agonist reporter assay in HEK293 cells (NFκB-SEAP); settings: for EC50: read-out: hTLR8 ED50; for hTLR8 agonist activity, in words: Table 3, FIG. 6
T2 construct: host or cells: HEK293
T2 sequence (Q9NR97 27-1041): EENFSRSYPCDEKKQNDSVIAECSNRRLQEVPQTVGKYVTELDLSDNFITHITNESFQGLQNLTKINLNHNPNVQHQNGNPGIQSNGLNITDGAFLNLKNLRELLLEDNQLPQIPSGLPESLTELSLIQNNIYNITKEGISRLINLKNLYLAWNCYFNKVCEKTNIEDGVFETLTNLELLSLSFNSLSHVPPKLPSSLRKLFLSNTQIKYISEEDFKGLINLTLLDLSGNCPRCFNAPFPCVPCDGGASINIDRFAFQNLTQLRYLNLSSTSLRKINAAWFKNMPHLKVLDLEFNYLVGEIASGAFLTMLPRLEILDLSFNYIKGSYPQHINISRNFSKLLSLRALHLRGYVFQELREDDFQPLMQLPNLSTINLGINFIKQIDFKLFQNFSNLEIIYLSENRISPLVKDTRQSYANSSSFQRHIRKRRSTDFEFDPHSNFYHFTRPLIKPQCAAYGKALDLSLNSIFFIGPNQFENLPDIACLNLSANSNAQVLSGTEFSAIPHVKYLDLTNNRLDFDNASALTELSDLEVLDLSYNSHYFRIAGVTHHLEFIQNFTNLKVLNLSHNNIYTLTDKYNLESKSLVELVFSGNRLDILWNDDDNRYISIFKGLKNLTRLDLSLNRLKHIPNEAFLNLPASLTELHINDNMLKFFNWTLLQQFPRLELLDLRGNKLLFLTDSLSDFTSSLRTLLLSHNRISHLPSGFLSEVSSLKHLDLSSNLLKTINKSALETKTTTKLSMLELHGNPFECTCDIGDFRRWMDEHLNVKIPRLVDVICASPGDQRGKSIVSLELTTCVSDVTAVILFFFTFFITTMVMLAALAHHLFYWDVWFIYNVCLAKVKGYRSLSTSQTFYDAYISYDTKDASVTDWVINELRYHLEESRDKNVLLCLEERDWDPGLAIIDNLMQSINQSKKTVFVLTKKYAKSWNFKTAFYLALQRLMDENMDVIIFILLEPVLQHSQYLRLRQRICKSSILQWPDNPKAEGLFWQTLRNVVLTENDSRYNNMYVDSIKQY
Experimental: as §1, §2

[1] = test system: human peripheral blood mononuclear cells (hPBMCs); assay: TNF-α induction in hPBMCs; settings: 24 h
Experimental: (§3) Assays to Measure Cytokine Induction
(§4) Test compounds were evaluated for cytokine induction in human peripheral blood mononuclear cells (hPBMCs).
(§5) Primary human PBMCs were isolated from fresh blood from healthy donors via Ficoll gradient separation and plated at 0.5×10^6 cells/well in 96-well tissue culture plates (RPMI-1640 plus 10% FBS). hPBMCs were maintained with RPMI-1640 culture media (Invitrogen, Grand Island, N.Y.), antibiotics (Invitrogen) and 10% FBS (Sigma).
(§6) Incubation and Assays for IFN-γ, IFN-α and TNF-α
(§7) hPBMCs were stimulated for 24 h with aqueous formulations of test compounds. Culture supernatants were analyzed for TNF-α and IFN-γ induction using multiplex kits (FluoroKine multiplex kits from R&D Systems, Minneapolis, Minn.) and for IFN-α induction using human IFN-α VeriKine ELISA kit (Pestka Biomedical Laboratories, Inc., Piscataway, N.J.).

[2] = test system: human peripheral blood mononuclear cells (hPBMCs); assay: IFN-α induction in hPBMCs; settings: 24 h
Experimental: as §3, §4, §5, §6, §7

[3] = test system: human peripheral blood mononuclear cells (hPBMCs); assay: IFN-γ induction in hPBMCs; settings: 24 h
Experimental: as §3, §4, §5, §6, §7

[4] = Table 4, FIG. 7, another occasion
[5] = Table 4, FIG. 8, another occasion
[6] = Table 3, FIG. 5, another occasion, * = only very low levels of NFKB activation were detected
[7] = Table 3, FIG. 6, another occasion, * = only very low levels of NFKB activation were detected
[8] = Table 2, FIG. 4, another occasion, * = only very low levels of NFKB activation were detected
[9] = Table 1, FIG. 1, 24 h stimulation, aqueous formulations
[10] = Table 2, FIG. 3, another occasion, * = only very low levels of NFKB activation were detected
[11] = Table 1, FIG. 2, 24 h stimulation, aqueous formulations

SMILES	hTLR7 agonist activity, in words (human TLR7)	EC50 (human TLR7; [6])	hTLR7/8 ratio (human TLR7; Table 3)	TNF-α induction, in words ([1]; FIG. 15, another occasion)	IFN-α induction, in words ([2]; FIG. 14, another occasion)	hTLR8 agonist activity, in words (human TLR8)	EC50 (human TLR8; [7])	EC50 (human TLR8; [8])	also measured
CCCCCCCCCCCCCCCC(=O)OC[C@H](COP(=O)(O)OCCOc1ccc2c(c1)nc(N)c1nc(CCCC)n(CCO)c12)OC(=O)CCCCCCCCCCCCCCC [Example 7]	–	–	–	–	–	–	–	–	EC50 (human TLR7; [4]): 14.6 µM; EC50 (human TLR8; [5]): 3.81 µM
CCCCCCCCCCCCCCCC(=O)OC[C@H](COCCOCCOCCOP(=O)(O)OCCOc1ccc2c(c1)nc(N)c1nc(CCCC)n(CCO)c12)OC(=O)CCCCCCCCCCCCCCC [Example 2]	–	–	–	–	–	–	–	–	EC50 (human TLR7; [4]): 6.1 µM; EC50 (human TLR8; [5]): 0.81 µM
CCCCc1nc2c(N)nc3cc(OCCOCCOCCO)ccc3c2n1CCO [Comparative Example 5]	quite weak agonist of hTLR7 and hTLR8	13.2 µM	0.8	effective but less potent	did not induce IFN-α	quite weak agonist of hTLR7 and hTLR8	16.3 µM	–	–
CCCCc1nc2c(N)nc3cc(OCCOP(=O)(O)OCCOCCOCCO[C@H]4CC[C@@]5(C)C(=CC[C@H]6[C@@H]7CC[C@H]([C@H](C)CCCC(C)C)[C@@]7(C)CC[C@@H]65)C4)ccc3c2n1CCO [Example 4]	–	–	–	–	–	–	–	31.9 µM	–
CCCCCCCC/C=C\CCCCCCCC(=O)OC[C@H](COP(=O)(O)OCCCCOc1ccc2c(c1)nc(N)c1nc(CCCC)n(CCO)c12)OC(=O)CCCCCCC/C=C\CCCCCCCC [Example 5]	very weak agonist of hTLR7 or hTLR8	10.5 µM	1.6	very weak effect	potent but at higher dose	very weak agonist of hTLR7 or hTLR8	6.6 µM	–	–
CCCCCCCC/C=C\CCCCCCCC(=O)OC[C@H](COP(=O)(O)OCCOCCOCCOc1ccc2c(c1)nc(N)c1nc(CCCC)n(CCO)c12)OC(=O)CCCCCCC/C=C\CCCCCCCC [Example 6]	very weak agonist of hTLR7	8.7 µM	1.5	effective but less potent	potent, but less so than Example 1	reasonably potent agonist of hTLR8	5.8 µM	–	–
CCCCCCCC/C=C\CCCCCCCC(=O)OC[C@H](COP(=O)(O)OCCn1c(CCCC)nc2c(N)nc3ccccc3c21)OC(=O)CCCCCCC/C=C\CCCCCCCC [Comparative Example 2, reference compound]	–	–	–	–	–	–	–	39.2 µM	IFN-γ induction, in words ([3]; FIG. 9): did not induce any IFN-γ; IFN-γ induction, in words ([3]; FIG. 11, another occasion): did not induce IFN-γ; EC50 (human TLR7; [9]): 34.6 µM; hTLR7/8 ratio (human TLR7; Table 1): 1.3; EC50 (human TLR7; [10]): 55.4 µM; hTLR7/8 ratio (human TLR7; Table 2): 1.4; TNF-α induction, in words ([1]; FIG. 13): not significantly effective at inducing TNF-α; EC50 (human TLR8; [11]): 26 µM
CCCCc1nc2c(N)nc3cc(OCCO)ccc3c2n1CCO [Comparative Example 3]	–	2.2 µM	1.9	effective at inducing TNF-α	Weaker effects	–	1.1 µM	0.8 µM	EC50 (human TLR7; [9]): 1.56 µM; hTLR7/8 ratio (human TLR7; Table 1): 15.5; EC50 (human TLR7; [10]): 2.4 µM; hTLR7/8 ratio (human TLR7; Table 2): 2.9; TNF-α induction, in words ([1]; FIG. 13): potent at inducing TNF-α; IFN-α induction, in words ([2]; FIG. 10): equipotent at inducing IFN-α and these were more potent than Comparative Example 1 and Comparative Example 2 in this assay at a lower dose; EC50 (human TLR8; [11]): 0.1 µM
CCCCc1nc2c(N)nc3cc(OCCCCO)ccc3c2n1CCO [Comparative Example 4]	good agonist of hTLR7 and hTLR8	1.6 µM	0.7	effective at inducing TNF-α	did not induce IFN-α	good agonist of hTLR7 and hTLR8	2.2 µM	–	–
